Data from ChEMBL document CHEMBL3046801, “Synthesis of 2-R1-2-(4-(2-fluoroethoxy)benzamido)acetate as potential PET imaging agents” (Med Chem Res, 2012).

Columns and labels:
[1] = system: Liver; test: Biodistribution in tumor bearing Mus musculus KM (mouse) liver at 3.7 MBq, iv measured at 30 min by microPET imaging analysis; type: ADME, organism-based; settings: in vivo, 0.5 h
[2] = system: Muscle tissue; test: Biodistribution in tumor bearing Mus musculus KM (mouse) muscle at 3.7 MBq, iv measured at 120 min by microPET imaging analysis; type: ADME, organism-based; settings: in vivo, 2 h
[3] = system: Blood; test: Clearance in tumor-bearing Mus musculus KM (mouse) blood at 3.7 MBq, iv measured at 60 min; type: ADME, organism-based; settings: in vivo, 1 h
[4] = system: Blood; test: Biodistribution in tumor bearing Mus musculus KM (mouse) blood at 3.7 MBq, iv measured at 120 min by microPET imaging analysis; type: ADME, organism-based; settings: in vivo, 2 h
[5] = system: Tumour; test: Biodistribution in tumor of Mus musculus KM (mouse) at 3.7 MBq, iv measured at 5 min by microPET imaging analysis; type: ADME, organism-based, Neoplasm; settings: in vivo
[6] = system: Muscle tissue; test: Biodistribution in tumor bearing Mus musculus KM (mouse) muscle at 3.7 MBq, iv by microPET imaging analysis; type: ADME, organism-based; settings: in vivo, TDE = time-dependent effect
[7] = system: Spleen; test: Biodistribution in tumor bearing Mus musculus KM (mouse) spleen at 3.7 MBq, iv measured at 120 min by microPET imaging analysis; type: ADME, organism-based; settings: in vivo, 2 h
[8] = system: Lung; test: Biodistribution in tumor bearing Mus musculus KM (mouse) lung at 3.7 MBq, iv measured at 15 min by microPET imaging analysis; type: ADME, organism-based; settings: in vivo, 0.25 h
[9] = system: Blood; test: Biodistribution in tumor bearing Mus musculus KM (mouse) blood at 3.7 MBq, iv measured at 30 min by microPET imaging analysis; type: ADME, organism-based; settings: in vivo, 0.5 h
[10] = system: Lung; test: Biodistribution in tumor bearing Mus musculus KM (mouse) lung at 3.7 MBq, iv by microPET imaging analysis; type: ADME, organism-based; settings: in vivo, TDE = time-dependent effect
[11] = system: Heart; test: Biodistribution in tumor bearing Mus musculus KM (mouse) heart at 3.7 MBq, iv measured at 15 min by microPET imaging analysis; type: ADME, organism-based; settings: in vivo, 0.25 h
[12] = system: Liver; test: Clearance in tumor-bearing Mus musculus KM (mouse) liver at 3.7 MBq, iv measured at 60 min; type: ADME, organism-based; settings: in vivo, 1 h
[13] = system: Muscle tissue; test: Biodistribution in tumor bearing Mus musculus KM (mouse) muscle at 3.7 MBq, iv measured at 5 min by microPET imaging analysis; type: ADME, organism-based; settings: in vivo
[14] = system: Heart; test: Biodistribution in tumor bearing Mus musculus KM (mouse) heart at 3.7 MBq, iv measured at 30 min by microPET imaging analysis; type: ADME, organism-based; settings: in vivo, 0.5 h
[15] = system: Nucleic Acid; test: Ratio of drug uptake in tumor to muscle in Mus musculus KM (mouse) at 3.7 MBq, iv at 60 min; type: ADME, organism-based; settings: in vivo, 1 h
[16] = system: Liver; test: Biodistribution in tumor bearing Mus musculus KM (mouse) liver at 3.7 MBq, iv measured at 5 min by microPET imaging analysis; type: ADME, organism-based; settings: in vivo
[17] = system: Tumour; test: Biodistribution in tumor of Mus musculus KM (mouse) at 3.7 MBq, iv measured at 60 min by microPET imaging analysis; type: ADME, organism-based, Neoplasm; settings: in vivo, 1 h
[18] = system: Blood; test: Biodistribution in tumor bearing Mus musculus KM (mouse) blood at 3.7 MBq, iv by microPET imaging analysis; type: ADME, organism-based; settings: in vivo, TDE = time-dependent effect
[19] = system: Blood; test: Biodistribution in tumor bearing Mus musculus KM (mouse) blood at 3.7 MBq, iv measured at 15 min by microPET imaging analysis; type: ADME, organism-based; settings: in vivo, 0.25 h
[20] = system: Lung; test: Biodistribution in tumor bearing Mus musculus KM (mouse) lung at 3.7 MBq, iv measured at 120 min by microPET imaging analysis; type: ADME, organism-based; settings: in vivo, 2 h
[21] = system: Blood; test: Biodistribution in tumor bearing Mus musculus KM (mouse) blood at 3.7 MBq, iv measured at 60 min by microPET imaging analysis; type: ADME, organism-based; settings: in vivo, 1 h
[22] = system: Kidney; test: Biodistribution in tumor bearing Mus musculus KM (mouse) kidney at 3.7 MBq, iv measured at 30 min by microPET imaging analysis; type: ADME, organism-based; settings: in vivo, 0.5 h

Drug uptake [1]: 1.08 % ID/g
Drug uptake [2]: 1.17 % ID/g
CL [3]: 96%
Drug uptake [4]: 0.85 % ID/g
Drug uptake [5]: 2.12 % ID/g
Drug uptake [6]: tde
Drug uptake [7]: 0.6 % ID/g
Drug uptake [8]: 1.69 % ID/g
Drug uptake [9]: 1.28 % ID/g
Drug uptake [10]: tde
Drug uptake [11]: 1.93 % ID/g
CLH [12]: 91%
Drug uptake [13]: 2.02 % ID/g
Drug uptake [14]: 0.95 % ID/g
Ratio [15]: 2.8
Drug uptake [16]: 4.19 % ID/g
Drug uptake [17]: 1.48 % ID/g
Drug uptake [18]: tde
Drug uptake [19]: 2.17 % ID/g
Drug uptake [20]: 0.76 % ID/g
Drug uptake [21]: 0.98 % ID/g
Drug uptake [22]: 1.77 % ID/g
SMILES: COC(=O)CNC(=O)c1ccc(OCC[18F])cc1 [[18F]FEBA]
